Laboratory results reported in the supplement of paper PMC10307832.

What was measured:
Assay in all cases: relative viability (nuclei count vs DMSO), 5 days (fraction); higher = more cells survive
[1] = compound: COc1cc2nccc(Oc3ccc(NC(=O)C4(C(=O)Nc5ccc(F)cc5)CC4)cc3)c2cc1OC [Cabozantinib] + N=C(N)NC(=N)NCCc1ccccc1 [Phenformin] (partner 250 µM)
Summary of the method: (§1)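 Medians of duplicate plates are given as relative viability. That measure is the nuclei count in treated wells divided by the count in vehicle wells. Counts were taken on 4× images of lung cancer cell lines in 1536-well plates, 5 days after pin-tool dosing the day after seeding with one drug alone or a fixed anchor-drug dose plus five library-drug doses (not always all listed) in √10 steps.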

Zosuquidar + Crizotinib = compound: O[C@@H](COc1cccc2ncccc12)CN1CCN([C@@H]2c3ccccc3[C@@H]3[C@H](c4ccccc42)C3(F)F)CC1 [Zosuquidar] + C[C@@H](Oc1cc(-c2cnn(C3CCNCC3)c2)cnc1N)c1c(Cl)ccc(F)c1Cl [Crizotinib] (partner 1 µM)
Summary of the method: as §1

Cabozantinib + Olaparib = compound: COc1cc2nccc(Oc3ccc(NC(=O)C4(C(=O)Nc5ccc(F)cc5)CC4)cc3)c2cc1OC [Cabozantinib] + O=C(c1cc(Cc2n[nH]c(=O)c3ccccc23)ccc1F)N1CCN(C(=O)C2CC2)CC1 [Olaparib] (partner 8 µM)
Summary of the method: as §1

Kobe2602 + Pictilisib = compound: C1=CC(=CC=C1NC(=S)NNC2=C(C=C(C=C2[N+](=O)[O-])C(F)(F)F)[N+](=O)[O-])F [Kobe2602] + CS(=O)(=O)N1CCN(Cc2cc3nc(-c4cccc5[nH]ncc45)nc(N4CCOCC4)c3s2)CC1 [Pictilisib] (partner 1 µM)
Summary of the method: as §1

Row | Cell Line | relative viability ([1]; first compound 0.02 µM) | relative viability ([1]; first compound 0.06325 µM) | relative viability ([1]; first compound 0.6325 µM) | relative viability ([1]; first compound 2 µM) | relative viability (Zosuquidar + Crizotinib; first compound 0.01 µM) | relative viability (Zosuquidar + Crizotinib; first compound 0.03162 µM) | relative viability (Zosuquidar + Crizotinib; first compound 0.1 µM) | relative viability (Zosuquidar + Crizotinib; first compound 0.3162 µM) | relative viability (Zosuquidar + Crizotinib; first compound 1 µM) | relative viability (Cabozantinib + Olaparib; first compound 0.02 µM) | relative viability (Cabozantinib + Olaparib; first compound 0.06325 µM) | relative viability (Cabozantinib + Olaparib; first compound 0.2 µM) | relative viability (Cabozantinib + Olaparib; first compound 0.6325 µM) | relative viability (Cabozantinib + Olaparib; first compound 2 µM) | relative viability (Kobe2602 + Pictilisib; first compound 0.2 µM) | relative viability (Kobe2602 + Pictilisib; first compound 0.6325 µM) | relative viability (Kobe2602 + Pictilisib; first compound 2 µM) | relative viability (Kobe2602 + Pictilisib; first compound 6.325 µM) | relative viability (Kobe2602 + Pictilisib; first compound 20 µM) | relative viability ([1]; first compound 0.2 µM)
1 | LOU-NH91 | 0.602 | 0.931 | 0.792 | 0.731 | 0.733 | 0.738 | 0.691 | 0.736 | 0.736 | 0.96 | 0.984 | 0.681 | 0.903 | 0.925 | 0.553 | 0.49 | 0.468 | 0.528 | 0.566 | 
2 | LU99A | 0.766 | 0.934 | 0.696 | 0.89 | 0.499 | 0.671 | 0.484 | 0.607 | 0.571 | 0.304 | 0.258 | 0.283 | 0.281 | 0.261 | 0.317 | 0.365 | 0.312 | 0.383 | 0.359 | 0.925
3 | LXF-289 | 0.524 | 0.544 | 0.508 | 0.493 | 0.768 | 0.861 | 0.799 | 0.816 | 0.876 | 1.13 | 1.22 | 1.06 | 0.979 | 1.07 | 0.82 | 0.814 | 0.693 | 0.862 | 0.799 | 0.5
4 | NCI-H23 |  | 0.938 | 0.825 | 0.814 | 0.467 | 0.495 | 0.512 | 0.534 | 0.478 |  | 0.386 | 0.345 | 0.304 | 0.348 | 0.47 | 0.581 | 0.491 | 0.516 | 0.497 | 0.8
5 | NCI-H322M | 0.779 | 0.922 | 0.803 | 0.816 | 0.896 | 0.929 | 0.861 | 0.739 | 0.91 | 0.831 | 0.902 | 0.695 | 0.781 | 0.675 | 0.566 | 0.533 | 0.534 | 0.511 | 0.554 | 0.589
6 | NCI-H358 | 0.283 | 0.317 | 0.296 | 0.337 | 0.602 | 0.497 | 0.807 | 0.497 | 0.532 | 0.708 | 0.625 | 0.565 | 0.529 | 0.591 | 0.301 | 0.324 | 0.332 | 0.39 | 0.318 | 0.231
7 | NCI-H441 | 0.556 | 0.775 | 0.883 | 0.902 | 0.681 | 0.788 | 0.689 |  | 0.742 | 0.787 | 0.664 | 0.615 | 0.59 | 0.703 | 0.46 | 0.495 | 0.538 | 0.483 | 0.409 | 1.02
8 | NCI-H460 | 0.535 | 0.563 | 0.512 | 0.508 | 0.813 | 0.906 | 1.01 | 0.916 | 1.02 | 0.443 | 0.492 | 0.445 | 0.46 | 0.422 | 0.392 | 0.373 | 0.463 | 0.365 | 0.403 | 0.576
9 | NCI-H520 | 0.608 | 0.598 | 0.672 | 0.432 | 0.727 | 0.68 | 0.737 | 0.834 | 0.828 | 0.369 | 0.341 | 0.386 | 0.42 | 0.228 | 0.253 | 0.364 | 0.255 | 0.225 | 0.292 | 0.65
10 | NCI-H596 | 0.728 | 0.883 | 0.796 | 0.664 | 1.03 | 0.898 | 1.01 | 1.06 | 1.02 | 0.75 | 0.768 | 0.756 | 0.7 | 0.793 | 0.222 | 0.432 | 0.395 | 0.403 | 0.422 | 0.778
11 | NCI-H647 | 0.488 | 0.596 | 0.49 | 0.322 | 1.03 | 1.09 | 1.03 | 1.14 | 1.1 | 0.715 | 0.656 | 0.523 | 0.537 | 0.51 | 0.432 | 0.483 | 0.455 | 0.425 | 0.567 | 0.541
12 | NCI-H650 |  | 0.497 | 0.465 | 0.404 | 0.641 | 0.762 |  | 0.731 | 0.721 | 0.38 | 0.373 | 0.398 | 0.386 | 0.35 | 0.946 | 0.935 | 0.775 | 0.859 | 0.883 | 0.454
13 | NCI-H661 | 0.273 | 0.252 | 0.335 | 0.286 | 0.993 | 1.07 |  | 1.05 | 0.906 | 0.786 | 0.79 | 0.779 | 0.875 | 0.825 | 0.461 | 0.368 | 0.419 | 0.353 | 0.52 | 0.283
14 | NCI-H727 | 0.447 | 0.617 | 0.495 | 0.528 | 0.905 | 0.925 | 0.732 | 0.798 | 0.925 | 0.769 | 0.828 | 0.632 | 0.907 | 0.606 | 0.314 | 0.356 | 0.473 | 0.331 | 0.385 | 0.477
15 | NCI-H838 | 0.551 | 0.592 | 0.563 | 0.41 | 0.802 | 0.789 | 0.849 | 0.901 | 0.779 | 0.847 | 0.836 | 0.774 | 0.699 | 0.662 | 0.393 | 0.489 | 0.426 | 0.422 | 0.418 | 0.542
16 | NCI-H1355 | 0.435 | 0.516 | 0.436 | 0.424 | 1.05 | 0.997 | 0.987 | 1.15 | 1.05 | 0.748 | 0.747 | 0.775 | 0.771 | 0.714 | 0.358 | 0.526 | 0.451 | 0.429 | 0.42 | 0.475
